Earlier results in PMC9981747, “A covalent BTK ternary complex compatible with targeted protein degradation” (Nature Communications, 2023).

Legend:
[1] = design: method as in PMID 27274052; conditions: cited from earlier work
[2] = design: method as in PMID 31879210; conditions: 1 mg/kg IV; cited from earlier work

SMILES | concentrations in sub-chronic tumor growth inhibition study ([1]; in 4 of 8 rodents tested) | Cmax ([1]; single 10 mg/kg sc dose, read-out: plasma Cmax) | exposure [2]
Cc1ncsc1-c1ccc([C@H](C)NC(=O)[C@@H]2C[C@@H](O)CN2C(=O)[C@@H](NC(=O)COCCCOCCNC(=O)C[C@@H]2N=C(c3ccc(Cl)cc3)c3c(sc(C)c3C)-n3c(C)nnc32)C(C)(C)C)cc1 [ARV-771] | > 2000 nM | ~1700 nM | 
Nc1ncnc2c1c(-c1ccc(Oc3ccccc3)cc1)nn2C1CCN(CCOCCOCCOc2ccc3c(c2)CN(C2CCC(=O)NC2=O)C3=O)CC1 (stereo not drawn) [SJF620] |  |  | micromolar exposures
